{"source": "paper PMC10857906", "about": "“PROTAC-mediated NR4A1 degradation as a novel strategy for cancer immunotherapy” (The Journal of Experimental Medicine, 2024)", "key": {"NR4A1 mRNA": {"system": "NR4A1 mRNA", "experiment": "NR4A1 mRNA by qPCR in CHL-1 cells", "format": "cell-based, human", "conditions": "500 nM, ACTB as control", "method": "Total RNA was extracted from cells using RNeasy Kits (74004; QIAGEN) following the manufacturer’s instructions. cDNA synthesis was performed using SuperScript III Reverse Transcriptase (18080044; Thermo Fisher Scientific) with 100 ng RNA as the template. Amplification of cDNA was carried out using 2× PowerUP SYBR Green Master Mix (A25778; Thermo Fisher Scientific). Each reaction was conducted in triplicates and results were normalized to the expression of a housekeeping gene. Primer (Eurofins): human β-actin (forward sequence: 5′-CACCATTGGCAATGAGCGGTTC-3′; reverse sequence: 5′-AGGTCTTTGCGGATGTCCACGT-3′) and human NR4A1 (forward sequence: 5′-GGACAACGCTTCATGCCAGCAT-3′; reverse sequence: 5′-CCTTGTTAGCCAGGCAGATGTAC-3′)."}, "NR4A1": {"biological_target": "T1, NR4A1 (Mus musculus, UniProt P12813)", "T1 construct": "from tissue; host or cells: MC38 tumours in mice (tumour lysates)", "T1 sequence (P12813 whole entry)": "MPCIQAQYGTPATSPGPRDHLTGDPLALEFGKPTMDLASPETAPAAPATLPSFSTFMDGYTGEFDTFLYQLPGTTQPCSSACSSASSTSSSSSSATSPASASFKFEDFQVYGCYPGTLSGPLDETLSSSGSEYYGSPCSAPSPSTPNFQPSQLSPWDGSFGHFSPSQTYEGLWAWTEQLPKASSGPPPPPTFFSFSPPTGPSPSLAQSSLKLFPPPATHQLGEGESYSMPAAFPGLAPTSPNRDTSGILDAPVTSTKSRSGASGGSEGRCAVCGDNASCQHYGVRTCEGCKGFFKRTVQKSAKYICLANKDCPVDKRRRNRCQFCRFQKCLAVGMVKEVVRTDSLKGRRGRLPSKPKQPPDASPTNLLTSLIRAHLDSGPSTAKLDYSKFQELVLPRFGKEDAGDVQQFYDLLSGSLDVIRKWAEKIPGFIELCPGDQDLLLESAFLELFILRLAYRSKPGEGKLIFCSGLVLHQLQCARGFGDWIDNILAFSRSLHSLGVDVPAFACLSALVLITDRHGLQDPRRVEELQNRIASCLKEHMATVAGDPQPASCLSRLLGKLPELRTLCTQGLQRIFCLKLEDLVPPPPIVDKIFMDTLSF", "experiment": "NR4A1 degradation in SM1 and SW1 mouse melanoma cell lines (immunoblotting)", "format": "cell-based", "conditions": "16 h", "method": "Human melanoma cell lines: A375 and CHL-1 (gifts from Dr. D. Zhou, the University of Texas Health Science Center, San Antonio, TX, USA) were cultured in Dulbecco’s Modified Eagles’ Medium (DMEM, D5796; Sigma-Aldrich), WM164 and M229 (gifts from Dr. K.S.M. Smalley’s lab) were cultured in RPMI-1640 (R8758; Sigma-Aldrich). Mouse melanoma cell lines: B16F10 (CRL-6475, ATCC) was cultured in DMEM, SW1 and SM1 (gift from Dr. K.S.M. Smalley, Moffitt Cancer Center, Tampa, FL, USA) were cultured in RPMI. Human epithelial kidney cell lines: HEK293T (293T, CRL-3216; ATCC) and Vhl-KO-293T (gift from Dr. D. Zhou, the University of Texas Health Science Center, San Antonio, TX, USA) were cultured in DMEM. Mouse colon cancer cell lines: MC38 (ENH204-FP; Kerafast Inc.) was cultured in DMEM supplemented with 1 mM glutamine, […] non-essential amino acids (11140050; Thermo Fisher Scientific), 1 mM sodium pyruvate (11360070; Thermo Fisher Scientific), and 10 mM HEPES (15630080; Thermo Fisher Scientific). […]\nSamples were lysed using radioimmunoprecipitation assay buffer (RIPA) lysis buffer (150 mM NaCl, 5 mM EDTA, 50 mM Tris pH 8.0, 0.5% sodium deoxycholate, 1% NP-40, 0.1% SDS) supplemented with 1 mM dithiothreitol and protease inhibitors. The lysates were separated by SDS-PAGE and analyzed using standard western blotting procedures ([Khan et al., 2019]). […]"}}}
{"compound": "CC1=C(O)C(=O)C=C2C1=CC=C1[C@@]2(C)CC[C@@]2(C)[C@@H]3C[C@](C)(C(=O)NCCOCCOCCOCCOCC(=O)N[C@H](C(=O)N4C[C@H](O)C[C@H]4C(=O)N[C@@H](C)c4ccc(-c5scnc5C)cc4)C(C)(C)C)CC[C@]3(C)CC[C@]12C", "note": "[NR-V04]", "values": [{"measurement": "NR4A1 mRNA level", "setting": "NR4A1 mRNA", "value": "increased NR4A1 mRNA after 4 h"}, {"measurement": "NR4A1 protein level", "setting": "NR4A1; SM1 mouse melanoma cells", "value": "reduced NR4A1 protein level"}, {"measurement": "NR4A1 protein level", "setting": "NR4A1; SW1 mouse melanoma cells", "value": "reduced NR4A1 protein level"}]}
